Experimental data taken from ChEMBL document CHEMBL1137802, “Specific antioxidant activity of caffeoyl derivatives and other natural phenolic compounds: LDL protection against oxidation and decrease in the proinflammatory lysophosphatidylcholine production” (J Nat Prod, 2001).
Active and inactive are the calls of the source. The rule behind the calls is not given here.

Tests used:
Format in all cases: functional, cell-free
[1] = Antioxidant activity against Cu2+-induced lipid peroxidation in human plasma LDL preincubated for 1 hr before Cu2+ challenge
[2] = Antioxidant activity against AAPH-induced lipid peroxidation in human plasma LDL preincubated for 1 hr before AAPH challenge
[3] = Antioxidant activity against AAPH-induced lipid peroxidation in human plasma LDL at 0.2 umol/L preincubated for 1 hr before AAPH challenge
[4] = Antioxidant activity against AAPH-induced lipid peroxidation in human plasma LDL at 1 umol/L preincubated for 1 hr before AAPH challenge
[5] = Antioxidant activity against Cu2+-induced lipid peroxidation in human plasma LDL at 0.01 to 0.1 umol/L preincubated for 1 hr before Cu2+ challenge
[6] = Antioxidant activity against AAPH-induced lipid peroxidation in human plasma LDL at 0.01 to 0.1 umol/L preincubated for 1 hr before AAPH challenge

Compound | Activity [1] | further results
O=C(O)c1ccccc1O | inactive | 
COc1cc(/C=C/C(=O)O)cc(OC)c1O | 47.4 µM/L | 
Oc1cc(O)c2c(c1)O[C@H](c1ccc(O)c(O)c1)[C@H](O)C2 | 37.1 µmol/L | 
O=C(/C=C/c1ccc(O)c(O)c1)O[C@@H]1C[C@](O)(C(=O)O)C[C@@H](O)[C@H]1O | 156 µM/L | Activity [2]: 55.3 µM/L
O=C(/C=C/c1ccc(O)c(O)c1)OC(C(=O)O)C(O)C(=O)O (stereo unspecified) | 125 µM/L | 
O=C(O)c1cc(O)c(O)c(O)c1 |  | Activity [3]: 90 µM/L; Activity [4]: 30 µM/L; Activity [5]: Active; Activity [6]: Active
Oc1cc(O)c2c(c1)OC(c1ccc(O)c(O)c1)C(O)C2 (stereo unspecified) | 34.6 µM/L | Activity [2]: 156 µM/L
VITAMIN E | 7.2 µM/L | 
O=C(/C=C/c1ccc(O)c(O)c1)O[C@H](Cc1ccc(O)c(O)c1)C(=O)O | 150 µM/L | 
O=C(O)c1ccc(O)c(O)c1 |  | Activity [5]: Active; Activity [6]: Active
O=C(O)/C=C/c1ccc(O)cc1 | 0.6 µM/L | 
CC(=O)Oc1ccccc1C(=O)O | inactive | 
O=C(O)/C=C/c1ccc(O)c(O)c1 | 54 µM/L | Activity [2]: 73.6 µM/L
COc1cc(/C=C/C(=O)O)ccc1O | 8.5 µM/L | 
